Test results taken from ChEMBL document CHEMBL1135216, “New 2-(1-adamantylcarbonyl)pyridine and 1-acetyladamantane thiosemicarbazones-thiocarbonohydrazones: cell growth inhibitory, antiviral and antimicrobial activity evaluation” (Bioorg Med Chem Lett, 2002).
Converted amounts (≈) assume the structure as drawn.

Legend:
HEL [1] = assay: Tested for cytotoxic activity in human embryonic lung fibroblast (HEL); assay type: functional
HEL [2] = assay: Tested for antiviral activity against human cytomegalovirus (AD-169) in human embryonic lung fibroblasts; assay type: functional
CCRF-CEM [3] = assay: Tested for the inhibitory concentration against cell growth of human leukemic cell line CCRF-CEM; assay type: functional
CCRF-CEM [4] = assay: Tested for the concentration required to reduce the viability of leukemia cells by 50% against cell growth of T cell leukemia cell line CCRF-CEM using MTT assay; assay type: functional; details: Homo sapiens
CCRF-CEM [5] = assay: Tested for the inhibitory concentration against cell growth of Tcell leukemic cell line CCRF-CEM using MTT assay; assay type: functional; details: Homo sapiens
HL-60 [6] = assay: Tested for the inhibitory concentration against cell growth of human leukemic cell line HL60; assay type: functional
HL-60 [7] = assay: Tested for the concentration required to reduce the viability of leukemia cells by 50% against cell growth of HL60 acute myeloid leukemia using MTT assay; assay type: functional; details: Homo sapiens, read-out: LC50 (the source's name)
HL-60 [8] = assay: Tested for the inhibitory concentration against cell growth of HL60 acute myeloid leukemia using MTT assay; assay type: functional; details: Homo sapiens
HuT78 [9] = assay: Tested for the inhibitory concentration against cell growth of human leukemic cell line HuT78; assay type: functional
HuT78 [10] = assay: Tested for the concentration required to reduce the viability of leukemia cells by 50% against cell growth of HuT78 T lymphoma using MTT assay; assay type: functional; details: Homo sapiens
HuT78 [11] = assay: Tested for the inhibitory concentration against cell growth of HuT78 T lymphoma using MTT assay; assay type: functional; details: Homo sapiens
K562 [12] = assay: Tested for the concentration required to reduce the viability of leukemia cells by 50% against cell growth of K562 chronic myeloid leukemia using MTT assay; assay type: functional; details: Homo sapiens, read-out: LC50 (the source's name)
K562 [13] = assay: Tested for the inhibitory concentration against cell growth of K562 chronic myeloid leukemia using MTT assay; assay type: functional; details: Homo sapiens
K562 [14] = assay: Tested for the inhibitory concentration against cell growth of human leukemic cell line K562; assay type: functional
MOLT-4 [15] = assay: Tested for the inhibitory concentration against cell growth of human leukemic cell line MOLT-4; assay type: functional
MOLT-4 [16] = assay: Tested for the concentration required to reduce the viability of leukemia cells by 50% against cell growth of T cell leukemia cell line MOLT-4 using MTT assay; assay type: functional; details: Homo sapiens
MOLT-4 [17] = assay: Tested for the inhibitory concentration against cell growth of Tcell leukemic cell line MOLT-4 using MTT assay; assay type: functional; details: Homo sapiens
RPMI-8226 [18] = assay: Tested for the inhibitory concentration against cell growth of human leukemic cell line RPMI8226; assay type: functional
RPMI-8226 [19] = assay: Tested for the concentration required to reduce the viability of leukemia cells by 50% against cell growth of RPMI8226 multiple myeloma using MTT assay; assay type: functional; details: Homo sapiens, read-out: LC50 (the source's name)
RPMI-8226 [20] = assay: Tested for the inhibitory concentration against cell growth of […] multiple myeloma using MTT assay; assay type: functional; details: Homo sapiens
E6SM [21] = assay: Tested for antiviral activity against VSV-virus in human embryonic skin muscle fibroblasts; assay type: functional; details: Muscle tissue
E6SM [22] = assay: Tested for antiviral activity against herpes simplex virus type 1(KOS) in E6SM cell line(human embryonic skin-muscle fibroblasts); assay type: functional
E6SM [23] = assay: Tested for antiviral activity against thymidine kinase-deficient (TK-HSV-2G) virus in E6SM cell line(human embryonic skin-muscle fibroblasts); assay type: functional
E6SM [24] = assay: Tested for antiviral activity against vaccinia virus in human embryonic skin muscle fibroblast; assay type: functional; details: Muscle tissue
HeLa [25] = assay: (§1) The compound was tested for antiviral activity against VSV-virus in human epithelial cells; assay type: functional
E6SM [26] = assay: Tested for cytotoxic activity in human embryonic skin muscle fibroblast (E6SM); assay type: functional; details: Muscle tissue
E6SM [27] = assay: Antiviral activity against thymidine kinase-deficient (TK-HSV-1)virus in E6SM cell line(human embryonic skin-muscle fibroblasts); assay type: functional
Escherichia coli = assay: Tested for the antimicrobial activity against Escherichia coli ATCC 25922; assay type: functional
HEL [28] = assay: Tested for antiviral activity against thymidine kinase deficient Varicella zoster virus in human embryonic lung fibroblasts; assay type: functional
HEL [29] = assay: Tested for antiviral activity against thymidine kinase wild type Varicella zoster virus in human embryonic lung fibroblast; assay type: functional
HeLa [30] = assay: Tested for antiviral activity against coxsackie-B4 virus in human epithelial cell line; assay type: functional
HeLa [31] = assay: Tested for cytotoxic activity in human epithelial cell line (HeLa); assay type: functional
Klebsiella pneumoniae = assay: Tested for the antimicrobial activity against Klebsiella pneumoniae ATCC 13883; assay type: functional
MT4 [32] = assay: Tested for effective concentration required to protect MT-4 cells against the cytopathicity of HIV-1(IIIB); assay type: functional; details: Homo sapiens, read-out: LC50 (the source's name)
MT4 [33] = assay: Tested for effective concentration required to protect MT-4 cells against the cytopathicity of HIV-2(ROD); assay type: functional, cell-based; details: Homo sapiens
Staphylococcus aureus = assay: Tested for the antimicrobial activity against Staphylococcus aureus ATCC 6538; assay type: functional
[34] = test system: Staphylococcus epidermidis; assay: Tested for the antimicrobial activity against Staphylococcus epidermidis ATCC 12228; assay type: functional
Staphylococcus hominis = assay: Tested for the antimicrobial activity against Staphylococcus hominis ATCC 27844; assay type: functional
Vero [35] = assay: Tested for cytotoxic activity in African green monkey kidney cells (Vero); assay type: functional; details: Chlorocebus sabaeus
Vero [36] = assay: Tested for antiviral activity against Punta toro virus in African green monkey kidney cell (Vero); assay type: functional; details: Chlorocebus sabaeus
Vero [37] = assay: Tested for antiviral activity against Reo-1 virus in African green monkey kidney cell (Vero); assay type: functional; details: Chlorocebus sabaeus
Vero [38] = assay: Tested for antiviral activity against Sindbis virus in African green monkey kidney cell (Vero); assay type: functional; details: Chlorocebus sabaeus
Vero [39] = assay: Tested for antiviral activity against coxsackie B-4 virus in African green monkey kidney cell (Vero); assay type: functional; details: Chlorocebus sabaeus
Vero [40] = assay: Tested for antiviral activity against parainfluenza virus in african green monkey kidney cell (Vero); assay type: functional; details: Chlorocebus sabaeus
MT4 [41] = assay: Tested for cytotoxic concentration required to reduce the viability of MT-4 cells by 50%; assay type: functional, cell-based; details: Homo sapiens, read-out: EC50 (the source's name)
E6SM [42] = assay: as §1; assay type: functional
E6SM [43] = assay: Tested for antiviral activity against thymidine kinase-deficient (TK-HSV-2G) virus in E6SM cell line(human embryonic skin-muscle fibroblasts)
[44] = read-out: LC50 (the source's name)

Nc1ccn(C[C@@H](CO)OCP(=O)(O)O)c(=O)n1.O.O [CIDOFOVIR]
MCC (HEL [1]): > 50 µg/mL | MIC (HEL [2]): 0.27 µg/mL

CC[C@]1(O)C[C@@H]2CN(CCc3c([nH]c4ccccc34)[C@@](C(=O)OC)(c3cc4c(cc3OC)N(C)[C@H]3[C@@](O)(C(=O)OC)[C@H](OC(C)=O)[C@]5(CC)C=CCN6CC[C@]43[C@@H]65)C2)C1 [VINBLASTINE]
GI50 (CCRF-CEM [3]): 2e-05 µM | CC50 (CCRF-CEM [4]; [44]): 5.73 nM | TGI (CCRF-CEM [5]): 0.00191 µM | GI50 (HL-60 [6]): 0.036 nM | CC50 (HL-60 [7]): 0.00151 µM | TGI (HL-60 [8]): 0.00025 µM | GI50 (HuT78 [9]): < 0.00025 µM | CC50 (HuT78 [10]; [44]): 0.25 nM | TGI (HuT78 [11]): < 0.00025 µM | CC50 (K562 [12]): < 0.00025 µM | TGI (K562 [13]): < 0.00025 µM | GI50 (K562 [14]): < 0.00025 µM | GI50 (MOLT-4 [15]): < 0.00025 µM | CC50 (MOLT-4 [16]; [44]): < 0.25 nM | TGI (MOLT-4 [17]): < 0.00025 µM | GI50 (RPMI-8226 [18]): 3e-06 µM | CC50 (RPMI-8226 [19]): 0.00328 µM | TGI (RPMI-8226 [20]): 0.0008 µM

C/C(=N/N=C(/S)N/N=C(\S)c1ccc(Cl)cc1Cl)C12CC3CC(CC(C3)C1)C2
GI50 (CCRF-CEM [3]): 5.7 µM | TGI (CCRF-CEM [4]): 100 µM | TGI (CCRF-CEM [5]): 100 µM | MIC (E6SM [21]): > 16 µg/mL | MIC (E6SM [22]): > 16 µg/mL | MIC (E6SM [23]): 9.6 µg/mL (≈ 21.1 µM) | MIC (E6SM [24]): > 16 µg/mL | MIC (HeLa [25]): > 3.2 µg/mL | MCC (E6SM [26]): 80 µg/mL | MIC (E6SM [27]): 9.6 µg/mL (≈ 21.1 µM) | MIC (Escherichia coli): > 2130 µg/mL | MCC (HEL [1]): 5 µg/mL | MIC (HEL [2]): > 2 µg/mL | MIC (HEL [28]): > 2 µg/mL | MIC (HEL [29]): > 2 µg/mL | MIC (HeLa [30]): > 3.2 µg/mL | GI50 (HL-60 [6]): 2400 nM | CC50 (HL-60 [7]): 10 µM | TGI (HL-60 [8]): 6.2 µM | MCC (HeLa [31]): 16 µg/mL | GI50 (HuT78 [9]): 8.1 µM | TGI (HuT78 [10]): 100 µM | TGI (HuT78 [11]): 100 µM | CC50 (K562 [12]): 100 µM | TGI (K562 [13]): 100 µM | GI50 (K562 [14]): 24.7 µM | MIC (Klebsiella pneumoniae): > 2130 µg/mL | GI50 (MOLT-4 [15]): 32.4 µM | EC50 (MT4 [32]): > 2000 nM | EC50 (MT4 [33]): > 2000 nM | TGI (MOLT-4 [16]): 100 µM | TGI (MOLT-4 [17]): 100 µM | GI50 (RPMI-8226 [18]): 3.6 µM | CC50 (RPMI-8226 [19]): 100 µM | TGI (RPMI-8226 [20]): 29.3 µM | MIC (Staphylococcus aureus): 133 µg/mL (≈ 292 µM) | MIC [34]: 133 µg/mL (≈ 292 µM) | MIC (Staphylococcus hominis): 133 µg/mL (≈ 292 µM) | MCC (Vero [35]): 16 µg/mL | MIC (Vero [36]): > 3.2 µg/mL | MIC (Vero [37]): > 3.2 µg/mL | MIC (Vero [38]): > 3.2 µg/mL | MIC (Vero [39]): > 3.2 µg/mL | MIC (Vero [40]): > 3.2 µg/mL | CC50 (MT4 [41]): 2400 nM

S=C(N/N=C(/c1ccccn1)C12CC3CC(CC(C3)C1)C2)NNC(=S)c1ccc(Cl)cc1Cl
GI50 (CCRF-CEM [3]): 66.3 µM | TGI (CCRF-CEM [4]): 100 µM | TGI (CCRF-CEM [5]): 100 µM | MIC (E6SM [21]): > 16 µg/mL | MIC (E6SM [22]): > 16 µg/mL | MIC (E6SM [24]): > 16 µg/mL | MIC (E6SM [42]): > 16 µg/mL | MCC (E6SM [26]): 80 µg/mL | MIC (E6SM [27]): > 16 µg/mL | MIC (Escherichia coli): > 1880 µg/mL | MCC (HEL [1]): 5 µg/mL | MIC (HEL [2]): > 2 µg/mL | MIC (HEL [28]): > 2 µg/mL | MIC (HEL [29]): > 2 µg/mL | MIC (HeLa [30]): > 3.2 µg/mL | GI50 (HL-60 [6]): 3600 nM | CC50 (HL-60 [7]): 31.9 µM | TGI (HL-60 [8]): 7 µM | MCC (HeLa [31]): 16 µg/mL | GI50 (HuT78 [9]): 23 µM | TGI (HuT78 [10]): 100 µM | TGI (HuT78 [11]): 81 µM | CC50 (K562 [12]): 100 µM | TGI (K562 [13]): 100 µM | GI50 (K562 [14]): 100 µM | MIC (Klebsiella pneumoniae): > 1880 µg/mL | GI50 (MOLT-4 [15]): 31.4 µM | EC50 (MT4 [32]): > 3000 nM | EC50 (MT4 [33]): > 3000 nM | TGI (MOLT-4 [16]): 100 µM | TGI (MOLT-4 [17]): 100 µM | GI50 (RPMI-8226 [18]): 4.6 µM | CC50 (RPMI-8226 [19]): 100 µM | TGI (RPMI-8226 [20]): 29.5 µM | MIC (Staphylococcus aureus): 117 µg/mL (≈ 226 µM) | MIC [34]: 117 µg/mL (≈ 226 µM) | MIC (Staphylococcus hominis): 117 µg/mL (≈ 226 µM) | MCC (Vero [35]): 16 µg/mL | MIC (Vero [36]): > 3.2 µg/mL | MIC (Vero [37]): > 3.2 µg/mL | MIC (Vero [38]): > 3.2 µg/mL | MIC (Vero [39]): > 3.2 µg/mL | MIC (Vero [40]): > 3.2 µg/mL | CC50 (MT4 [41]): 2600 nM | MIC (E6SM [43]): > 3.2 µg/mL
